*1 amine or outer side, *2 acyl side, *3 side chain or, on linkers, in order; H or OH if unused. Where a SMILES comes first, the peptide text is derived from it. Side-chain parts run from the residue outwards. [ ]: non-standard residue; d: D form. The star is where a group is joined. C18 diacid = O=C(O)CCCCCCCCCCCCCCCCC(=O)*; γGlu = O=C(O)[C@H](CCC(=O)[*:2])N[*:1]; Nle = CCCC[C@H](N)C(=O)O; AEEA = NCCOCCOCC(=O)O; Aib = CC(C)(N)C(=O)O
molecular target: T1, human GIP receptor (Homo sapiens, UniProt P48546); assay: In vitro potency (CRE luciferase; whole cells), BHK CRE luc2P hGIPR; format: cell-based; settings: 0.2% HSA
T1 construct: expressed in transfected cells; host or cells: BHK (parent line BHKTS13), BHK CRE luc2P hGIPR clone #5
T1 sequence (P48546 22-466): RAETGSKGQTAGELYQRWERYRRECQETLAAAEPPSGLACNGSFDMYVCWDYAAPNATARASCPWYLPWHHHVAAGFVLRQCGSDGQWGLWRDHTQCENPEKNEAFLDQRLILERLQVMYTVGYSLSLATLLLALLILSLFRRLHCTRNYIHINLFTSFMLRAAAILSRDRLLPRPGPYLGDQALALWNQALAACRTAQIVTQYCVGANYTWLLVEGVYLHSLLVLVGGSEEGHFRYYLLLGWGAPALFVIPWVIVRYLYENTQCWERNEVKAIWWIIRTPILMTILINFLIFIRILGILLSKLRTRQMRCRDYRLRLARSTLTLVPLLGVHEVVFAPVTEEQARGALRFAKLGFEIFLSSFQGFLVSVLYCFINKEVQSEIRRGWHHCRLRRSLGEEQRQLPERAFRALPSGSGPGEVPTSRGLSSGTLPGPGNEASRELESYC
Protocol: In Vitro Potency (CRE Luciferase; Whole Cells)
The in vitro potency is the measure of human GIP, GLP-1 or glucagon receptor activation, respectively, in a whole cell assay.
In vitro potency was determined by measuring the response of the human GIP, GLP-1 or glucagon receptor in a reporter gene assay in individual cell lines. […] When the respective receptor is activated it results in the production of cAMP, which in turn results in the luciferase protein being expressed. When assay incubation is completed the luciferase substrate (luciferin) is added and the enzyme converts luciferin to oxyluciferin to produce bioluminescence. The luminescence is measured as the readout for the assay.
The cells were derived from a clone containing the CRE luciferase element and were established by further transfection with the respective receptor to obtain the current clone.
The cells were cultured at 5% CO2 in Cell Culture Medium. They were aliquoted and stored in liquid nitrogen. The cells were kept in passage and were seeded out the day before each assay.
The Assay Buffer consisted of 1% ovalbumin and 0.1% Pluronic F-68 in Assay Medium with the addition of human serum albumin at twice the indicated concentrations.
1) Cells were plated at 5000 cells/well and incubated overnight.
2) Cells were washed three times in PBS.
3) Assay Medium (50 μl aliquot) with or without serum albumin was added to each well in the assay plate.
4) Stocks of the test compounds and reference compounds were diluted to a concentration of 0.2 μM in Assay Buffer. […] 8) The cells were washed three times with PBS plus some liquid in each well. 9) A 100 μl aliquot of steadylite plus reagent was added to each well of the assay plate (reagent was light sensitive). 10) Each assay plate was covered with aluminum foil to protect it from light and shaken for 30 min at room temperature. 11) Each assay plate was read in a microtiter plate reader. Calculations and Results
The data from the microtiter plate reader was transferred to GraphPad Prism software. The software performs a non-linear regression (log(agonist) vs response).
A minimum of two replicates was measured for each sample. The reported values are averages of the replicates.

Structure (SMILES)	EC50 [nM]
CC[C@H](C)[C@H](NC(=O)[C@H](CO)NC(=O)[C@H](Cc1ccc(O)cc1)NC(=O)[C@H](CC(=O)O)NC(=O)[C@H](CO)NC(=O)[C@@H](NC(=O)[C@H](Cc1ccccc1)NC(=O)[C@@H](NC(=O)CNC(=O)[C@H](CCC(=O)O)NC(=O)[C@H](C)NC(=O)[C@@H](Cc1ccc(O)cc1)NC(C)=O)[C@@H](C)O)[C@@H](C)CC)C(=O)N[C@@H](C)C(=O)N[C@@H](CC(=O)O)C(=O)N[C@@H](CC(=O)O)C(=O)N[C@@H](CCCCN)C(=O)N[C@H](C(=O)N[C@@H](CCCNC(=N)N)C(=O)N[C@@H](CCC(N)=O)C(=O)N[C@@H](CCC(=O)O)C(=O)N[C@@H](CC(=O)O)C(=O)N[C@@H](Cc1ccccc1)C(=O)N[C@H](C(=O)N[C@@H](CCCCNC(=O)COCCOCCNC(=O)COCCOCCNC(=O)CC[C@H](NC(=O)CCCCCCCCCCCCCCCCC(=O)O)C(=O)O)C(=O)N[C@@H](Cc1c[nH]c2ccccc12)C(=O)N[C@@H](CC(C)C)C(=O)N[C@@H](CC(C)C)C(=O)N[C@@H](C)C(=O)N[C@@H](CCC(N)=O)C(=O)N[C@@H](CCCCN)C(=O)NCC(=O)O)C(C)C)[C@@H](C)CC [Compound 19, N{1}-acetyl,N{Epsilon-24}-[2-[2-[2-[[2-[2-[2-[[(4S)-4-carboxy-4-(17-carboxyheptadecanoylamino)butanoyl]amino]ethoxy]ethoxy]acetyl]amino]ethoxy]ethoxy]acetyl]-[D-Tyr1,Asp14,Arg18,Glu20, Lys24]-hGIP(1-31)] (Ac-[dY]AEGTFISDYSIADDKIRQEDFVK([AEEA-AEEA-γGlu-C18 diacid])WLLAQKG-OH; C-terminus assumed)	0.0915
CCCC[C@H](NC(=O)[C@H](C)NC(=O)[C@@H](NC(=O)[C@H](CO)NC(=O)[C@H](Cc1ccc(O)cc1)NC(=O)[C@H](CC(=O)O)NC(=O)[C@H](CO)NC(=O)[C@@H](NC(=O)[C@H](Cc1ccccc1)NC(=O)[C@@H](NC(=O)CNC(=O)[C@H](CCC(=O)O)NC(=O)C(C)(C)NC(=O)[C@@H](N)Cc1ccc(O)cc1)[C@@H](C)O)[C@@H](C)CC)[C@@H](C)CC)C(=O)N[C@@H](CC(=O)O)C(=O)N[C@@H](CCCCN)C(=O)N[C@H](C(=O)N[C@@H](Cc1c[nH]cn1)C(=O)N[C@@H](CCC(N)=O)C(=O)N[C@@H](CCC(=O)O)C(=O)N[C@@H](CC(=O)O)C(=O)N[C@@H](Cc1ccccc1)C(=O)N[C@H](C(=O)N[C@@H](CCCCNC(=O)CC[C@H](NC(=O)CC[C@H](NC(=O)CC[C@H](NC(=O)CC[C@H](NC(=O)CCCCCCCCCCCCCCCCC(=O)O)C(=O)O)C(=O)O)C(=O)O)C(=O)O)C(=O)N[C@@H](Cc1c[nH]c2ccccc12)C(=O)N[C@@H](CC(C)C)C(=O)N[C@@H](CC(C)C)C(=O)N[C@@H](C)C(=O)N[C@@H](CCC(N)=O)C(=O)N[C@@H](CCCCN)C(=O)NCC(=O)O)C(C)C)[C@@H](C)CC [Compound 20, N{Epsilon-24}-[(4S)-4-carboxy-4-[[(4S)-4-carboxy-4-[[(4S)-4-carboxy-4-[[(4S)-4-carboxy-4-(17-carboxyheptadecanoylamino)butanoyl]amino]butanoyl]amino]butanoyl]-amino]butanoyl]-[Aib2,Nle14,Glu20,Lys24]-hGIP(1-31)] (H-Y[Aib]EGTFISDYSIA[Nle]DKIHQEDFVK([γGlu-γGlu-γGlu-γGlu-C18 diacid])WLLAQKG-OH; N-terminus and C-terminus assumed)	0.158
CCCC[C@H](NC(=O)[C@H](C)NC(=O)[C@@H](NC(=O)[C@H](CO)NC(=O)[C@H](Cc1ccc(O)cc1)NC(=O)[C@H](CC(=O)O)NC(=O)[C@H](CO)NC(=O)[C@@H](NC(=O)[C@H](Cc1ccccc1)NC(=O)[C@@H](NC(=O)CNC(=O)[C@H](CCC(=O)O)NC(=O)C(C)(C)NC(=O)[C@@H](N)Cc1ccc(O)cc1)[C@@H](C)O)[C@@H](C)CC)[C@@H](C)CC)C(=O)N[C@@H](CC(=O)O)C(=O)N[C@@H](CCCCN)C(=O)N[C@H](C(=O)N[C@@H](CCCNC(=N)N)C(=O)N[C@@H](CCC(N)=O)C(=O)N[C@@H](CCC(N)=O)C(=O)N[C@@H](CC(=O)O)C(=O)N[C@@H](Cc1ccccc1)C(=O)N[C@H](C(=O)N[C@@H](CCCCNC(=O)CC[C@H](NC(=O)CC[C@H](NC(=O)CC[C@H](NC(=O)CCCCCCCCCCCCCCCCC(=O)O)C(=O)O)C(=O)O)C(=O)O)C(=O)N[C@@H](Cc1c[nH]c2ccccc12)C(=O)N[C@@H](CC(C)C)C(=O)N[C@@H](CC(C)C)C(=O)N[C@@H](C)C(=O)N[C@@H](CCC(N)=O)C(=O)N[C@@H](CCCCN)C(=O)NCC(=O)N[C@@H](CCCCN)C(=O)N[C@@H](CCC(=O)O)C(=O)N[C@@H](CC(N)=O)C(=O)N[C@@H](CC(=O)O)C(=O)N[C@@H](Cc1c[nH]c2ccccc12)C(=O)N[C@@H](CCCCN)C(=O)N[C@@H](Cc1c[nH]cn1)C(=O)N[C@@H](CC(N)=O)C(=O)N[C@H](C(=O)N[C@H](C(=O)N[C@@H](CCC(N)=O)C(=O)O)[C@@H](C)O)[C@@H](C)CC)C(C)C)[C@@H](C)CC [Compound 34, N{Epsilon-24}-[(4S)-4-carboxy-4-[[(4S)-4-carboxy-4-[[(4S)-4-carboxy-4-(17-carboxyheptadecanoylamino)butanoyl]amino]butanoyl]amino]butanoyl]-[Aib2,Nle14,Arg18,Lys24,Glu33]-hGIP]	0.0202

Source: patent publication US10604555B2, “GIP derivatives and uses thereof” (priority 2018, dated 2020)
